# Results taken from paper PMC4005910 (Cell Reports, 2014).
# Legend:
# cytoplasmatic peptidase = settings: half-life; ref Lazaro et al., 2011; cited from earlier work
# [1] = Solubility of peptide for TAP binding test; type: physicochemical; settings: could not be tested for TAP binding
Sequence,"cytoplasmatic peptidase stability, t1/2 (cytoplasmatic peptidase)",solubility [1]
KAFSPEVIPMF [KF11],13 s,
GTTSTLQEQIAW [GW12],,insoluble
